# Where a name gives a salt, the structure may show the parent alone.
# Test system: progranulin (PGRN)
# Assay: progranulin induction cellular assay (PGRN assay), ELISA-based readout
# Settings: PGRN assay as described: mouse primary microglia, primary cortical neurons and BV-2 cell lines; secreted mouse PGRN in medium by ELISA; cell type for Table B not specified
# Protocol: Cellular Assays: To measure the efficacy of compounds, a progranulin induction cellular assay in mouse primary microglia (pMG), primary cortical neurons, and BV-2 cell lines is used. BV-2 cells are split the day before plating into a 96 well plate format at approximately 80%. Cells should be plated the day before and allowed for 1 hour attachment period and for 16 hour incubation. Levels of progranulin secreted into the cell culture medium or retained in the cell lysate can be quantified using an ELISA-based readout and measurement of secreted mouse PGRN in the medium was assessed by the methodology published by Ghidoni et al. 2012. Standard ELISA kits to measure PGRN are available from vendors such as Adipogen, R&D, and Biovendor.
# Table B below presents the results of a PGRN assay as described above.
row,EC50,Structure (SMILES)
1,> 10 µM,"O=C(OC12CC(N3CCCC3=O)(C1)C2)N1CCc2ccccc2[C@@H]1c1ccc(F)cc1 [Compound 4025, 3-(2-Oxopyrrolidin-1-yl)bicyclo[1.1.1]pentan-1-yl (S)-1-(4-fluorophenyl)-3,4-dihydroisoquinoline-2(1H)-carboxylate]"
2,0.85 µM,"CNC12CC(OC(=O)N3CCc4ccccc4[C@@H]3c3ccc(F)cc3)(C1)C2 [Compound 4026, 3-(Methylamino)bicyclo[1.1.1]pentan-1-yl (S)-1-(4-fluorophenyl)-3,4-dihydroisoquinoline-2(1H)-carboxylate hydrochloride]"
3,1.06 µM,"CS(=O)(=O)CCNC12CC(OC(=O)N3CCc4ccccc4[C@@H]3c3ccc(F)cc3)(C1)C2 [Compound 4027, 3-((2-(Methylsulfonyl)ethyl)amino)bicyclo[1.1.1]pentan-1-yl (S)-1-(4-fluorophenyl)-3,4-dihydroisoquinoline-2(1H)-carboxylate hydrochloride]"
4,2.32 µM,"N[C@H]1C[C@@H](CNC(=O)N2CCc3ccccc3[C@@H]2c2ccc(F)cc2)C1 [Compound 4028, Cis-(S)—N-((3-aminocyclobutyl)methyl)-1-(4-fluorophenyl)-3,4-dihydroisoquinoline-2(1H)-carboxamide]"
5,3.4 µM,"N[C@H]1C[C@H](CNC(=O)N2CCc3ccccc3[C@@H]2c2ccc(F)cc2)C1 [Compound 4029, Trans-(S)—N-((3-aminocyclobutyl)methyl)-1-(4-fluorophenyl)-3,4-dihydroisoquinoline-2(1H)-carboxamide]"
6,9.64 µM,"NC[C@H]1C[C@@H](OC(=O)N2CCc3ccccc3[C@@H]2c2ccc(F)cc2)C1 [Compound 4030, Cis-3-(aminomethyl)cyclobutyl (S)-1-(4-fluorophenyl)-3,4-dihydroisoquinoline-2(1H)-carboxylate]"
7,> 10 µM,"NC[C@H]1C[C@H](OC(=O)N2CCc3ccccc3[C@@H]2c2ccc(F)cc2)C1 [Compound 4031, Trans-3-(aminomethyl)cyclobutyl (S)-1-(4-fluorophenyl)-3,4-dihydroisoquinoline-2(1H)-carboxylate]"
8,> 10 µM,"NC[C@H]1C[C@@H](NC(=O)N2CCc3ccccc3[C@@H]2c2ccc(F)cc2)C1 [Compound 4032, (S)—N-(cis-3-(aminomethyl)cyclobutyl)-1-(4-fluorophenyl)-3,4-dihydroisoquinoline-2(1H)-carboxamide]"
9,0.32 µM,"NC1(COC(=O)N2CCc3ccccc3[C@@H]2c2ccc(F)cc2)CC1 [Compound 4033, (1-Aminocyclopropyl)methyl (S)-1-(4-fluorophenyl)-3,4-dihydroisoquinoline-2(1H)-carboxylate hydrochloride]"
10,0.37 µM,"N[C@H]1C[C@@H](NC(=O)N2CCc3ccccc3[C@@H]2c2ccc(F)cc2)C1 [Compound 4034, (S)—N-(cis-3-aminocyclobutyl)-1-(4-fluorophenyl)-3,4-dihydroisoquinoline-2(1H)-carboxamide]"
11,0.49 µM,"N[C@H]1C[C@H](NC(=O)N2CCc3ccccc3[C@@H]2c2ccc(F)cc2)C1 [Compound 4035, (S)—N-(trans-3-aminocyclobutyl)-1-(4-fluorophenyl)-3,4-dihydroisoquinoline-2(1H)-carboxamide hydrochloride]"
12,1.12 µM,"N[C@H]1C[C@H](OC(=O)N2CCc3ccccc3[C@@H]2c2ccc(F)cc2)C1 [Compound 4036, Trans-3-aminocyclobutyl (S)-1-(4-fluorophenyl)-3,4-dihydroisoquinoline-2(1H)-carboxylate hydrochloride]"
13,0.31 µM,"C[C@]1(N)C[C@@H](NC(=O)N2CCc3ccccc3[C@@H]2c2ccc(F)cc2)C1 [Compound 4041, (S)—N-(cis-3-amino-3-methylcyclobutyl)-1-(4-fluorophenyl)-3,4-dihydroisoquinoline-2(1H)-carboxamide hydrochloride]"
14,0.059 µM,"C[C@]1(N)C[C@H](NC(=O)N2CCc3ccccc3[C@@H]2c2ccc(F)cc2)C1 [Compound 4042, (S)—N-(trans-3-amino-3-methylcyclobutyl)-1-(4-fluorophenyl)-3,4-dihydroisoquinoline-2(1H)-carboxamide hydrochloride]"
15,0.9 µM,"CN[C@H]1C[C@H](NC(=O)N2CCc3ccccc3[C@@H]2c2ccc(F)cc2)C1 [Compound 4043, (S)-1-(4-fluorophenyl)-N-(trans-3-(methylamino)cyclobutyl)-3,4-dihydroisoquinoline-2(1H)-carboxamide hydrochloride]"
16,1.03 µM,"CN[C@H]1C[C@H](N(C)C(=O)N2CCc3ccccc3[C@@H]2c2ccc(F)cc2)C1 [Compound 4044, (S)-1-(4-fluorophenyl)-N-methyl-N-((trans)-3-(methylamino)cyclobutyl)-3,4-dihydroisoquinoline-2(1H)-carboxamide hydrochloride]"
17,0.6 µM,"CN[C@H]1C[C@@H](NC(=O)N2CCc3ccccc3[C@@H]2c2ccc(F)cc2)C1 [Compound 4045, (S)-1-(4-fluorophenyl)-N-(cis-3-(methylamino)cyclobutyl)-3,4-dihydroisoquinoline-2(1H)-carboxamide hydrochloride]"
18,0.92 µM,"N[C@H]1C[C@@H](COC(=O)N2CCc3ccccc3[C@@H]2c2ccc(F)cc2)C1 [Compound 4046, (Cis-3-aminocyclobutyl)methyl (S)-1-(4-fluorophenyl)-3,4-dihydroisoquinoline-2(1H)-carboxylate]"

row,EC50,Structure (SMILES)
1,1.64 µM,"N[C@H]1C[C@H](COC(=O)N2CCc3ccccc3[C@@H]2c2ccc(F)cc2)C1 [Compound 4047, (Trans-3-aminocyclobutyl)methyl (S)-1-(4-fluorophenyl)-3,4-dihydroisoquinoline-2(1H)-carboxylate]"
2,1.09 µM,"CC(C)(OC(=O)N1CCc2ccccc2C1c1ccc(F)cc1)C12CC(N)(C1)C2 [Compound 4048, 2-(3-Aminobicyclo[1.1.1]pentan-1-yl)propan-2-yl (S)-1-(4-fluorophenyl)-3,4-dihydroisoquinoline-2(1H)-carboxylate]"
3,> 10 µM,"O=C(OC12CC(N3CCOCC3)(C1)C2)N1CCc2ccccc2[C@@H]1c1ccc(F)cc1 [Compound 4049, 3-Morpholinobicyclo[1.1.1]pentan-1-yl (S)-1-(4-fluorophenyl)-3,4-dihydroisoquinoline-2(1H)-carboxylate hydrochloride]"
4,> 10 µM,"CC(C)(NC(=O)N1CCc2ccccc2C1c1ccc(F)cc1)C12CC(N)(C1)C2 [Compound 4050, (S)—N-(2-(3-aminobicyclo[1.1.1]pentan-1-yl)propan-2-yl)-1-(4-fluorophenyl)-3,4-dihydroisoquinoline-2(1H)-carboxamide hydrochloride]"
5,0.46 µM,"CNC1(COC(=O)N2CCc3ccccc3[C@@H]2c2ccc(F)cc2)CC1 [Compound 4051, (1-(Methylamino)cyclopropyl)methyl (S)-1-(4-fluorophenyl)-3,4-dihydroisoquinoline-2(1H)-carboxylate hydrochloride]"
6,> 10 µM,"O=C(NC12CC(N3CC(F)(F)C3)(C1)C2)N1CCc2ccccc2[C@@H]1c1ccc(F)cc1 [Compound 4052, (S)—N-(3-(3,3-difluoroazetidin-1-yl)bicyclo[1.1.1]pentan-1-yl)-1-(4-fluorophenyl)-3,4-dihydroisoquinoline-2(1H)-carboxamide]"
7,0.031 µM,"C[C@]1(NC(=O)N2CCc3ccccc3[C@@H]2c2ccc(F)cc2)C[C@H](N)C1 [Compound 4053, (S)—N-((trans)-3-amino-1-methylcyclobutyl)-1-(4-fluorophenyl)-3,4-dihydroisoquinoline-2(1H)-carboxamide]"
8,0.12 µM,"C[C@]1(NC(=O)N2CCc3ccccc3[C@@H]2c2ccc(F)cc2)C[C@@H](N)C1 [Compound 4054, (S)—N-((cis)-3-amino-1-methylcyclobutyl)-1-(4-fluorophenyl)-3,4-dihydroisoquinoline-2(1H)-carboxamide]"
9,0.16 µM,"CN(C(=O)N1CCc2ccccc2[C@@H]1c1ccc(F)cc1)[C@H]1C[C@H](N)C1 [Compound 4055, (S)—N-((trans)-3-aminocyclobutyl)-1-(4-fluorophenyl)-N-methyl-3,4-dihydroisoquinoline-2(1H)-carboxamide]"
10,1.44 µM,"NC12CC(CC(=O)N3CCc4ccccc4C3c3ccc(F)cc3)(C1)C2 [Compound 4056, (S)-2-(3-aminobicyclo[1.1.1]pentan-1-yl)-1-(1-(4-fluorophenyl)-3,4-dihydroisoquinolin-2(1H)-yl)ethan-1-one]"
11,1.75 µM,"CNC12CC(CC(=O)N3CCc4ccccc4C3c3ccc(F)cc3)(C1)C2 [Compound 4057, (S)-1-(1-(4-fluorophenyl)-3,4-dihydroisoquinolin-2(1H)-yl)-2-(3-(methylamino)bicyclo[1.1.1]pentan-1-yl)ethan-1-one]"
12,0.9 µM,"CNC12CC(CCC(=O)N3CCc4ccccc4C3c3ccc(F)cc3)(C1)C2 [Compound 4058, (S)-1-(1-(4-fluorophenyl)-3,4-dihydroisoquinolin-2(1H)-yl)-3-(3-(methylamino)bicyclo[1.1.1]pentan-1-yl)propan-1-one hydrochloride]"
13,0.968 µM,NC[C@H]1CC[C@@H]1OC(=O)N1CCc2ccccc2[C@@H]1c1ccc(F)cc1 [Compound 4064]
14,0.821 µM,NC[C@H]1CC[C@H]1OC(=O)N1CCc2ccccc2[C@@H]1c1ccc(F)cc1 [Compound 4065]
15,0.61 µM,CN[C@H]1C[C@@H](NC(=O)N2CCc3ccccc3[C@@H]2c2ccc(F)cc2)C1 [Compound 4066]
16,0.913 µM,CN[C@H]1C[C@@H](N(C)C(=O)N2CCc3ccccc3[C@@H]2c2ccc(F)cc2)C1 [Compound 4067]
17,0.29 µM,CN(C)[C@H]1C[C@@H](NC(=O)N2CCc3ccccc3[C@@H]2c2ccc(F)cc2)C1 [Compound 4068]

# From patent US20230115534A1 (ARKUDA THERAPEUTICS, priority 2019, published 2023)
